The text below walks through data of ChEMBL document CHEMBL1201862, “PubChem BioAssay data set” (2004).

Each structure is given as a SMILES string. Active and inactive are the calls of the source.

Assay [1] has as its target Hexokinase-1 (Homo sapiens, UniProt P19367). Description: SAR analysis of small molecule inhibitors of hexokinase domain containing I (HKDC1) in the hexokinase 1 selectivity assay. [Related pubchem assays (depositor defined):AID493160, AID493190]. The format is functional.
In assay [2] the target is Hexokinase HKDC1 (Homo sapiens, UniProt Q2TB90). Description: SAR analysis of small molecule inhibitors of hexokinase domain containing I (HKDC1). [Related pubchem assays (depositor defined):AID493160, AID493190]. The format is functional.
Chain of Hexokinase HKDC1 (Q2TB90 whole entry, the tested form may be a part): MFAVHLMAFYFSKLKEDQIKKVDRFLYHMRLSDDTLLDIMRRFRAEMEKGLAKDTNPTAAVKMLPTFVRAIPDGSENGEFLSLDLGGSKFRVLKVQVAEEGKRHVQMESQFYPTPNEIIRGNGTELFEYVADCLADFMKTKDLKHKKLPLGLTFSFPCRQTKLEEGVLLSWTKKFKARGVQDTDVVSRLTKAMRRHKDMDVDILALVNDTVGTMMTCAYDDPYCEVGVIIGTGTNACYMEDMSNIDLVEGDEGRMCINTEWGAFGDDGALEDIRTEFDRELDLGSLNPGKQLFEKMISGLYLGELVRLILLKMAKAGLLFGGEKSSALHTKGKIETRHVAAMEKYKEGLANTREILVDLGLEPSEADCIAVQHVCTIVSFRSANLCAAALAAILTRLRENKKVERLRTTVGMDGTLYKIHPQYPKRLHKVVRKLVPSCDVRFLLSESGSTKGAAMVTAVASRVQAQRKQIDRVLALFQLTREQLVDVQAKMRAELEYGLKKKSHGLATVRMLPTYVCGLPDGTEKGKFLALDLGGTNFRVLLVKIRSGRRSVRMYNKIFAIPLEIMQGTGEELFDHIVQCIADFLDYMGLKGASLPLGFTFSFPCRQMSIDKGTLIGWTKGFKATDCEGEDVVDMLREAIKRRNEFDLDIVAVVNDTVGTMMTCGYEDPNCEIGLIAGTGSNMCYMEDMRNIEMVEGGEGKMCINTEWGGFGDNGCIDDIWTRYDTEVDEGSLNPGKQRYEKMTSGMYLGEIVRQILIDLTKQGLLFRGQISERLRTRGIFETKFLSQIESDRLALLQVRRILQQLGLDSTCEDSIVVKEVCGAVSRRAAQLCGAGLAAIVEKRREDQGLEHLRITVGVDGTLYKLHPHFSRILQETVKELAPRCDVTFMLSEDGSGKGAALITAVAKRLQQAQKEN
The test system of assay [3] is Candida albicans. Description: growth inhibition of resistant C. albicans, dose response, CaCi-8, fluconazole, Alamar Blue, dry powder (AID 488807). The format is functional, organism-based. Background: Resazurin is reduced to fluorescent resorufin, in cell work by metabolically active cells.
Assay [4] deals with NIH3T3. Kind of assay: cytotoxicity in NIH-3T3 fibroblasts, dose response, cytotoxicity control for antifungal drug resistance project, cell-based, Alamar Blue, fluconazole, dry powder (AID 488809). The format is functional. The note with it: Mus musculus.
The target of assay [5] is DNA topoisomerase (Yersinia pestis, UniProt A0A2S9PM60). Description: Y. pestis Topo-I inhibitors, cleavage product readout, dose response, biochemical, cherry-pick (AID 588525).
Chain of DNA topoisomerase (A0A2S9PM60 whole entry): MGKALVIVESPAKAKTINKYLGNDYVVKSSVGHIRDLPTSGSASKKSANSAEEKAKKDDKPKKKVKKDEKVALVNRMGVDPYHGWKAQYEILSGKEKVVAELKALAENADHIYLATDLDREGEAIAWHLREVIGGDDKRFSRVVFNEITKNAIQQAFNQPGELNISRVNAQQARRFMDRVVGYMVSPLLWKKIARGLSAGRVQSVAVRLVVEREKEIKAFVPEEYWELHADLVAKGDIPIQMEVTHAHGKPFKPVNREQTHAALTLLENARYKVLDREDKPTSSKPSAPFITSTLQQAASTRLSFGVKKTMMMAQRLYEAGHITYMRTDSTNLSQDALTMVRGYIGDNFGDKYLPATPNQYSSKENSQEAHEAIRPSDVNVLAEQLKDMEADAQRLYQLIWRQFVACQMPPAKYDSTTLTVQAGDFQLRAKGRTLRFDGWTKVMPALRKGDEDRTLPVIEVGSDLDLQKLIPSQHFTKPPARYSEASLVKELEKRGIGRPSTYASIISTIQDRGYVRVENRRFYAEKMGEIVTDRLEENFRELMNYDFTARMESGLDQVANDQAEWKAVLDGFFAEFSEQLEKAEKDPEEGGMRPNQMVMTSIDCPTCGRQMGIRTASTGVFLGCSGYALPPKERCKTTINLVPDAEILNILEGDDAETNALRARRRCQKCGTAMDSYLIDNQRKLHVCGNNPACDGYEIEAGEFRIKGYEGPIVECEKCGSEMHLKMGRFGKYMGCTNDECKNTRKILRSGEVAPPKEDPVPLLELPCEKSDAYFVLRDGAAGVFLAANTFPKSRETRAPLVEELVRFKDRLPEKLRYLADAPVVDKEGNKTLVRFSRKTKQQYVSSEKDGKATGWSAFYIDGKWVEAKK
For assay [6], the system named is HEK293. Kind of assay: inhibitors of LMP1-driven NF-kB reporter, dose response, cell-based, HEK293, luciferase, cherry-pick (AID 588343). The conditions noted are these: Homo sapiens. Format: functional.
Assay [7] in a line: cells. Format: functional, cell-based.
Assay [8] has as its target T1, Nuclear receptor subfamily 0 group B member 1 (Homo sapiens, UniProt P51843).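 Further: HEK293T cells transfected with SF-1 and DAX-1 plus StAR promoter luciferase reporter.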
T1 sequence (P51843 whole entry): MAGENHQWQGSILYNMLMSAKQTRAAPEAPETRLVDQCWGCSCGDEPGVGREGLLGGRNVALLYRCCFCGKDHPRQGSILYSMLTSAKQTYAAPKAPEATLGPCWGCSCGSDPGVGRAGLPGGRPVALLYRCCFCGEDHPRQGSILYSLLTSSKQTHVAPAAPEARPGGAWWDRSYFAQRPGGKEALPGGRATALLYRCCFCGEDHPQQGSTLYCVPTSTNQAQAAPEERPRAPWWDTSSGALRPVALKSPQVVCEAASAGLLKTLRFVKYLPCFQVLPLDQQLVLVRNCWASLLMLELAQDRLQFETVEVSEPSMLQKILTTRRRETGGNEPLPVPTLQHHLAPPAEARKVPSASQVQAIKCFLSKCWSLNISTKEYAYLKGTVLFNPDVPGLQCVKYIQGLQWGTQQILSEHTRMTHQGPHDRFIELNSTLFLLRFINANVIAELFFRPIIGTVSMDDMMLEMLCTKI
The format is functional, cell-based.

Assay [9] concerns Escherichia coli. Kind of assay: microbe, parasite or virus in culture.

Chain of Hexokinase-1 (P19367 whole entry, the tested form may be a part): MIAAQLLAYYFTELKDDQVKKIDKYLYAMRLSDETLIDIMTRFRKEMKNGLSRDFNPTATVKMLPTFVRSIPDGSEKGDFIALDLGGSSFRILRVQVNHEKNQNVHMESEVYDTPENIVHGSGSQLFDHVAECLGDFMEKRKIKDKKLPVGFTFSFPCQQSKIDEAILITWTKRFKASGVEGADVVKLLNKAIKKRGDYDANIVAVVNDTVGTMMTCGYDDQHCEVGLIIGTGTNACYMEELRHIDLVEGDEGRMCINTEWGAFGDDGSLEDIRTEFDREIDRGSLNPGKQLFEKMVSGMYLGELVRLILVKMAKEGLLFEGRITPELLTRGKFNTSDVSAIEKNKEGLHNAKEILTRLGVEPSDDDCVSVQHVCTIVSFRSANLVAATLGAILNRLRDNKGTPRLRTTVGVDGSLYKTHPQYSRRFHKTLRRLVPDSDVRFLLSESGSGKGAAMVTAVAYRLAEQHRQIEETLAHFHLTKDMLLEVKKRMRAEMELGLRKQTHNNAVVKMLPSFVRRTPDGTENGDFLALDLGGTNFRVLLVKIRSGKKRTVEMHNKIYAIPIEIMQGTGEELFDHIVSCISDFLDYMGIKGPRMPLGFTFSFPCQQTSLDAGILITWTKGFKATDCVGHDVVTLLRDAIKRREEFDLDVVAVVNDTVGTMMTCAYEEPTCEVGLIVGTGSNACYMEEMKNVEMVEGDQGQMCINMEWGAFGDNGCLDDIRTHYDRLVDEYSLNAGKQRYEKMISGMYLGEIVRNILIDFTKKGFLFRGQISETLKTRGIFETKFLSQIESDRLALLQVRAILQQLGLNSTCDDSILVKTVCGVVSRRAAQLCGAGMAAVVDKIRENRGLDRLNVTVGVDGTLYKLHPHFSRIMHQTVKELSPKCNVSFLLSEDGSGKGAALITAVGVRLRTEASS

Turning to `COc1cc2c(cc1OC)-c1cc(NC(C)c3ccccc3)nc(=O)n1CC2` (centres undefined), the IC50 in assay [1] and in assay [2] was > 80 µM (inactive) in each case.
Turning to `CCN(CC)C(=O)Cn1c2ccccc2c2nc3n(c(=O)c21)CCS3`, the AC50 in assay [3] is 6.14 µM (active); in [4] it was 0.596 µM (active).
As for `Cc1ccc2nc(Nc3nc(O)cc(CSc4nnc(C)s4)n3)nc(C)c2c1`, the AC50 in [5] was 6.04 µM (active).
Turning to `CN(C)c1cccc(C(=O)N/N=C/c2ccccc2F)c1`, the figures for the AC50 in [6] and in [9] were 3.75 µM (active) and 134 µM (active), respectively. Besides, the IC50 in assay [7] and in assay [8] was > 67.6 µM (inactive) in each case.

One may read the IC50 as the concentration at which inhibition is half-maximal. In general, AC50 refers to the concentration giving half of the maximal activity seen.
